Experimental data from patent US10167262B2, “Herbicidal substituted 3-arylpyrazoles” (FMC CORPORATION, priority 2014, dated 2019).

What was measured:
Type in all cases: in vivo
[1] = tested on: johnsongrass (Sorghum halepense); assay: Test C pre-/postemergence greenhouse test, plant response rating 0-100; conditions: Postemergence; for Plant response rating, Johnsongrass: scale 0 to 100
How it was run: (§1)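 Pre- and postemergence greenhouse test: seeds sown in loam/sand and treated preemergence, or plants at 2–18 cm (1- to 4-leaf stage) in peat-based medium sprayed postemergence, with compounds in non-phytotoxic solvent plus surfactant. Visual rating versus untreated controls after 13–15 days, 0 (no effect) to 100 (complete control).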

[2] = tested on: giant foxtail (Setaria faberii); assay: as above; conditions: Postemergence; for Plant response rating, Foxtail, Giant: scale 0 to 100
How it was run: as §1

[3] = tested on: winter wheat (Triticum aestivum); assay: as above; conditions: Postemergence; for Plant response rating, Wheat: scale 0 to 100
How it was run: as §1

[4] = tested on: chickweed (common chickweed, Stellaria media); assay: Test C postemergence greenhouse test, plant response rating 0-100; conditions: for Plant response rating, Chickweed: scale 0 to 100
How it was run: (§2)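 Visual rating vs. controls, 0 (no effect) to 100 (complete control), 13–15 d after postemergence treatment. Potted plants, 1- to 4-leaf stage (2–18 cm), greenhouse-held.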

kochia (Kochia scoparia) = assay: as above; conditions: for Plant response rating, Kochia: scale 0 to 100
How it was run: as §2

wild oat (Avena fatua) = assay: as above; conditions: for Plant response rating, Oat, Wild: scale 0 to 100
How it was run: as §2

[5] = tested on: velvetleaf (Abutilon theophrasti); assay: Test A pre-/postemergence greenhouse herbicide test, visual injury rating 0-100; conditions: 1000 g ai/ha
How it was run: (§3)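 Seeds sown in loam soil–sand blend; preemergence directed soil spray and, simultaneously, postemergence spray on plants 2 to 10 cm tall at one- to two-leaf stage. Compounds formulated in non-phytotoxic solvent mixture with surfactant. Injury rated visually versus untreated controls after ~10 days in greenhouse.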

[6] = tested on: wheat (Triticum aestivum); assay: as above; conditions: 1000 g ai/ha
How it was run: as §3

corn (Zea mays) = assay: as above; conditions: 1000 g ai/ha
How it was run: as §3

[7] = tested on: giant foxtail (Setaria faberii); assay: as above; conditions: 1000 g ai/ha
How it was run: as §3

[8] = tested on: pigweed (Amaranthus retroflexus); assay: as above; conditions: 1000 g ai/ha
How it was run: as §3

[9] = tested on: barnyardgrass (Echinochloa crus-galli); assay: as above; conditions: 1000 g ai/ha
How it was run: as §3

[10] = tested on: morningglory (Ipomoea spp.); assay: as above; conditions: 1000 g ai/ha
How it was run: as §3

[11] = tested on: large (Lg) crabgrass (Digitaria sanguinalis); assay: as above; conditions: 1000 g ai/ha
How it was run: as §3

Row | SMILES | Plant response rating (0 to 100), Johnsongrass ([1]; 62 g ai/ha) | Plant response rating (0 to 100), Johnsongrass ([1]; 125 g ai/ha) | Plant response rating, Johnsongrass ([1]; 250 g ai/ha) | Plant response rating, Johnsongrass ([1]; 500 g ai/ha) | Plant response rating (0 to 100), Foxtail, Giant ([2]; 62 g ai/ha) | Plant response rating (0 to 100), Foxtail, Giant ([2]; 125 g ai/ha) | Plant response rating, Foxtail, Giant ([2]; 250 g ai/ha) | Plant response rating, Foxtail, Giant ([2]; 500 g ai/ha) | Plant response rating (0 to 100), Wheat ([3]; 62 g ai/ha) | Plant response rating (0 to 100), Wheat ([3]; 125 g ai/ha) | Plant response rating, Wheat ([3]; 250 g ai/ha) | Plant response rating, Wheat ([3]; 500 g ai/ha) | Plant response rating (0 to 100), Chickweed ([4]; 62 g ai/ha) | Plant response rating (0 to 100), Chickweed ([4]; 125 g ai/ha) | Plant response rating, Chickweed ([4]; 250 g ai/ha) | Plant response rating, Chickweed ([4]; 500 g ai/ha) | Plant response rating (0 to 100), Kochia (kochia (Kochia scoparia); 62 g ai/ha) | Plant response rating (0 to 100), Kochia (kochia (Kochia scoparia); 125 g ai/ha) | Plant response rating, Kochia (kochia (Kochia scoparia); 250 g ai/ha) | Plant response rating, Kochia (kochia (Kochia scoparia); 500 g ai/ha) | other results
1 | Fc1ccc(NN=C(c2ccccc2)c2c[nH]nc2-c2cc(Cl)cc(Cl)c2)cc1 [Compound 35] | 0 | 0 | 0 | 0 | 0 | 0 | 0 | 5 | 0 | 0 | 0 | 0 | 98 | 100 | 100 | 100 | 50 | 55 | 90 | 95 | Plant response rating (0 to 100), Oat, Wild (wild oat (Avena fatua); 62 g ai/ha): 0; Plant response rating (0 to 100), Oat, Wild (wild oat (Avena fatua); 125 g ai/ha): 0; Plant response rating, Oat, Wild (wild oat (Avena fatua); 250 g ai/ha): 0; Plant response rating, Oat, Wild (wild oat (Avena fatua); 500 g ai/ha): 0; Plant response rating (0 to 100 scale), Velvetleaf ([5]; Postemergence): 90; Plant response rating (0 to 100 scale), Velvetleaf ([5]; Preemergence): 100; Plant response rating (0 to 100 scale), Wheat ([6]; Postemergence): 0; Plant response rating (0 to 100 scale), Wheat ([6]; Preemergence): 0; Plant response rating (0 to 100 scale), Corn (corn (Zea mays); Postemergence): 0; Plant response rating (0 to 100 scale), Corn (corn (Zea mays); Preemergence): 0; Plant response rating (0 to 100 scale), Foxtail, Giant ([7]; Postemergence): 0; Plant response rating (0 to 100 scale), Foxtail, Giant ([7]; Preemergence): 0; Plant response rating (0 to 100 scale), Pigweed ([8]; Postemergence): 90; Plant response rating (0 to 100 scale), Pigweed ([8]; Preemergence): 100; Plant response rating (0 to 100 scale), Barnyardgrass ([9]; Postemergence): 0; Plant response rating (0 to 100 scale), Barnyardgrass ([9]; Preemergence): 0; Plant response rating (0 to 100 scale), Morningglory ([10]; Postemergence): 0; Plant response rating (0 to 100 scale), Morningglory ([10]; Preemergence): 0; Plant response rating (0 to 100 scale), Crabgrass, Large ([11]; Postemergence): 0; Plant response rating (0 to 100 scale), Crabgrass, Large ([11]; Preemergence): 0
2 | Fc1cccc(NN=C(c2ccccc2)c2c[nH]nc2-c2cc(Cl)cc(Cl)c2)c1 [Compound 58] | 0 | 25 | 25 | 25 | 0 | 0 | 0 | 5 | 0 | 0 | 0 | 0 | 70 | 100 | 100 | 100 | 15 | 50 | 98 | 98 | Plant response rating (0 to 100), Oat, Wild (wild oat (Avena fatua); 62 g ai/ha): 0; Plant response rating (0 to 100), Oat, Wild (wild oat (Avena fatua); 125 g ai/ha): 0; Plant response rating, Oat, Wild (wild oat (Avena fatua); 250 g ai/ha): 0; Plant response rating, Oat, Wild (wild oat (Avena fatua); 500 g ai/ha): 0; Plant response rating (0 to 100 scale), Velvetleaf ([5]; Postemergence): 90; Plant response rating (0 to 100 scale), Velvetleaf ([5]; Preemergence): 90; Plant response rating (0 to 100 scale), Wheat ([6]; Postemergence): 0; Plant response rating (0 to 100 scale), Wheat ([6]; Preemergence): 0; Plant response rating (0 to 100 scale), Corn (corn (Zea mays); Postemergence): 0; Plant response rating (0 to 100 scale), Corn (corn (Zea mays); Preemergence): 0; Plant response rating (0 to 100 scale), Foxtail, Giant ([7]; Postemergence): 0; Plant response rating (0 to 100 scale), Foxtail, Giant ([7]; Preemergence): 0; Plant response rating (0 to 100 scale), Pigweed ([8]; Postemergence): 90; Plant response rating (0 to 100 scale), Pigweed ([8]; Preemergence): 100; Plant response rating (0 to 100 scale), Barnyardgrass ([9]; Postemergence): 0; Plant response rating (0 to 100 scale), Barnyardgrass ([9]; Preemergence): 0; Plant response rating (0 to 100 scale), Morningglory ([10]; Postemergence): 0; Plant response rating (0 to 100 scale), Morningglory ([10]; Preemergence): 0; Plant response rating (0 to 100 scale), Crabgrass, Large ([11]; Postemergence): 0; Plant response rating (0 to 100 scale), Crabgrass, Large ([11]; Preemergence): 0
